Like-named read-outs stand apart in the source and are kept apart here.

Data on 21 compounds can be found in US20240199605A1, “SMALL MOLECULAR INHIBITORS OF NF-kB INDUCING KINASE” (Janssen Pharmaceutica NV, priority 2019, published 2024).

Test [1] has as its system p-IKKα levels in L363 (NIK translocated multiple myeloma) cells. Description: Effect of compounds on p-IKKα levels in L363 cells (AlphaLISA SureFire Ultra). It counts as cell-based, human. To be noted: BAFF stimulated, MG132, 6 h, average of values, read-out: Assay 2 IC50. In outline:
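Inhibition of p-IKKα (Ser176/180) read by AlphaLISA after 6 h, 37 °C compound exposure (11-point 1:3 series, 0.3% DMSO) of L363 cells pre-incubated overnight ± 250 ng/ml BAFF and plated ± BAFF ± 10 μM MG132. Normalised to BAFF/MG132/DMSO and unstimulated controls; IC50 by sigmoidal fitting, duplicates.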

Test [2] deals with recombinant human NF-kappaB-inducing kinase (NIK/MAP3K14) (Homo sapiens (Human), UniProt Q99558). Description: Inhibition of auto-phosphorylation of recombinant human NIK/MAP3K14 (AlphaScreen). To be noted: NIK auto-phosphorylation, 5 μM ATP, 1 nM NIK, 2 h at 25° C.; average of values. It counts as biochemical. The procedure, abridged:
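GST-tagged NIK (1 nM) auto-phosphorylated with 5 μM ATP for 2 h at 25° C. in 50 mM Tris pH 7.5, 5 mM MgCl2, 1 mM EGTA, 1 mM DTT, 0.1 mM Na3VO4, 0.01% Tween 20 (0.7% DMSO). Detected by AlphaScreen via anti-phospho-IKK Ser176/180 antibody; IC50 from sigmoidal fit of % inhibition versus log concentration.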

recombinant human NF-kappaB-inducing kinase (NIK/MAP3K14), sequence (Q99558 whole entry): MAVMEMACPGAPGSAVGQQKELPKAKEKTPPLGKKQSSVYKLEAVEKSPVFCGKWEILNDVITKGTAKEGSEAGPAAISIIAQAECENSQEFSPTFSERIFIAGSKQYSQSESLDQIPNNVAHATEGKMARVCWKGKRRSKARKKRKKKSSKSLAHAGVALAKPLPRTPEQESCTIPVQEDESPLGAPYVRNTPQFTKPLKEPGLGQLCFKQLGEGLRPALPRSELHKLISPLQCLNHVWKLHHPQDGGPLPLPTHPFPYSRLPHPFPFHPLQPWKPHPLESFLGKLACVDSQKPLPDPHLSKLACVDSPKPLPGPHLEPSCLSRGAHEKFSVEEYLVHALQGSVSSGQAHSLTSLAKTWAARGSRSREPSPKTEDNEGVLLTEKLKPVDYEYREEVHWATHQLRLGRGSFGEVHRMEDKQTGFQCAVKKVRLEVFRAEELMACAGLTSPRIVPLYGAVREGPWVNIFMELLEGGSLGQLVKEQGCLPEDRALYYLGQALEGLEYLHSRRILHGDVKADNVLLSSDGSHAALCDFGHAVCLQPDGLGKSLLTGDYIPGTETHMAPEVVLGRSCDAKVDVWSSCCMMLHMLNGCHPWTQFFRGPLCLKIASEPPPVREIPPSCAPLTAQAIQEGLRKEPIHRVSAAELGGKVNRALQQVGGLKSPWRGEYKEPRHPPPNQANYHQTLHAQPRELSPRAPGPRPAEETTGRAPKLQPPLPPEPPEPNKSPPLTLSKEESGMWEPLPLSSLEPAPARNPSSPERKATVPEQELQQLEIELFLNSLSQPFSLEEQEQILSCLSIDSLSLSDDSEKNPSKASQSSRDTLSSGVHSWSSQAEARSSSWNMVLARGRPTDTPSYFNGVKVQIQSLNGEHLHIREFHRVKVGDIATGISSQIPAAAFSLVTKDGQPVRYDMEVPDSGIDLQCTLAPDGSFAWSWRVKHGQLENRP

For the compound `[2H]c1nc(N)c2nc(-c3cc(C#C[C@]4(O)CCN(C)C4=O)ccc3OC)ccc2n1` [Example 160, (R)-3-((3-(4-Aminopyrido[3,2-d]pyrimidin-6-yl-2-d)-4-methoxyphenyl)ethynyl)-3-hydroxy-1-methylpyrrolidin-2-one], the IC50 was determined as 19 nM in test [1] (Homo sapiens, L-363, 6 h) and 2.4 nM in test [2].

As to `CCNc1ncnc2ccc(-c3cccc(C#C[C@]4(O)CCN(C)C4=O)c3)nc12` [Example 227, (R)-3-((3-(4-(Ethylamino)pyrido[3,2-d]pyrimidin-6-yl)phenyl)ethynyl)-3-hydroxy-1-methylpyrrolidin-2-one], the IC50 came to 540 nM in test [1] (Homo sapiens, L-363, 6 h) and 23 nM in test [2].

Consider `CN1CC[C@@](O)(C#Cc2cccc(-c3ccc4ncnc(N5CCC5)c4n3)c2)C1=O` [Example 26, (R)-3-((3-(4-(Azetidin-1-yl)pyrido[3,2-d]pyrimidin-6-yl)phenyl)ethynyl)-3-hydroxy-1-methylpyrrolidin-2-one], for which the IC50 in test [1] (Homo sapiens, L-363, 6 h) amounted to 58 nM; in test [2], 1.2 nM.

As to `CN1CC[C@@](C#Cc2cccc(-c3ccc4ncnc(N)c4n3)c2)(C(F)F)C1=O` [Example 205, (S)-3-((3-(4-Aminopyrido[3,2-d]pyrimidin-6-yl)phenyl)ethynyl)-3-(difluoromethyl)-1-methylpyrrolidin-2-one], the IC50 in test [1] (Homo sapiens, L-363, 6 h) was over 5000 nM; in test [2] it was 4880 nM.

For the compound `Cc1nc(N)c2nc(-c3cc(C#C[C@]4(O)CCN(C)C4=O)ccc3C)sc2n1` [Example 182, (R)-3-[2-[3-(7-Amino-5-methyl-thiazolo[5,4-d]pyrimidin-2-yl)-4-methyl-phenyl]ethynyl]-3-hydroxy-1-methyl-pyrrolidin-2-one], the IC50 in test [1] (Homo sapiens, L-363, 6 h) was determined as 74 nM; in test [2], 1.2 nM.

On to `Cc1ccc(C#C[C@@]2(O)CCN(C)C2=O)cc1-c1nc2c(N)ncnc2s1` [Example 11, (S)-3-((3-(7-Aminothiazolo[5,4-d]pyrimidin-2-yl)-4-methylphenyl)ethynyl)-3-hydroxy-1-methylpyrrolidin-2-one], for which the IC50 amounted to 2060 nM in test [1] (Homo sapiens, L-363, 6 h) and 83 nM in test [2].

For the compound `CN1CC[C@@](O)(C#Cc2cccc(-c3ccc4ncnc(N)c4c3)c2)C1=O` [Example 16, (R)-3-[2-[3-(4-Aminoquinazolin-6-yl)phenyl]ethynyl]-3-hydroxy-1-methyl-pyrrolidin-2-one], the IC50 in test [1] (Homo sapiens, L-363, 6 h) was 57 nM; in test [2], 0.7 nM.

Take `CN1CCC(O)(C#Cc2cccc(-c3ncc4ccnc(N5CCC5)c4n3)c2)C1=O` (stereo in doubt) [Example 248, (S)-3-((3-(8-(Azetidin-1-yl)pyrido[3,4-d]pyrimidin-2-yl)phenyl)ethynyl)-3-hydroxy-1-methylpyrrolidin-2-one]: the half-inhibitory concentration (IC50) in test [1] is over 5000 nM; in test [2] it was 3340 nM.

In the case of `[2H]c1nc(N)c2nc(-c3cccc(C#C[C@]4(O)CCN(C)C4=O)c3)cc(CC)c2n1` [Example 308, (R)-3-((3-(4-Amino-8-ethylpyrido[3,2-d]pyrimidin-6-yl-2-d)phenyl)ethynyl)-3-hydroxy-1-methylpyrrolidin-2-one], the IC50 in test [1] (Homo sapiens, L-363, 6 h) came out at 190 nM; in test [2], 6.8 nM.

Consider `Cc1ncc(Br)c2ccc(-c3cccc(C#C[C@]4(O)CCN(C)C4=O)c3)nc12` [Example 249, (R)-3-((3-(5-Bromo-8-methyl-1,7-naphthyridin-2-yl)phenyl)ethynyl)-3-hydroxy-1-methylpyrrolidin-2-one], for which the IC50 in test [1] (Homo sapiens, L-363, 6 h) was found to be 470 nM; in test [2], 7.3 nM.

As to `Cc1cnc(N)c2nc(-c3cccc(C#C[C@]4(O)CCN(C)C4=O)c3)ncc12` [Example 39, (R)-3-((3-(8-Amino-5-methylpyrido[3,4-d]pyrimidin-2-yl)phenyl)ethynyl)-3-hydroxy-1-methylpyrrolidin-2-one], the IC50 in test [1] (Homo sapiens, L-363, 6 h) was 9 nM; in test [2], at most 0.5 nM.

In the case of `CN1CC[C@@](O)(C#Cc2cccc(-n3cc4c(N)ncnc4n3)c2)C1=O` [Example 179, (R)-3-((3-(4-Amino-2H-pyrazolo[3,4-d]pyrimidin-2-yl)phenyl)ethynyl)-3-hydroxy-1-methylpyrrolidin-2-one], the IC50 in test [1] (Homo sapiens, L-363, 6 h) is over 5000 nM; in test [2], 1170 nM.

For `CN1CC[C@@](O)(C#Cc2cccc(-c3ncc4c(-c5ccccc5)cnc(N)c4n3)c2)C1=O` [Example 121, (R)-3-((3-(8-Amino-5-phenylpyrido[3,4-d]pyrimidin-2-yl)phenyl)ethynyl)-3-hydroxy-1-methylpyrrolidin-2-one], the IC50 in test [1] (Homo sapiens, L-363, 6 h) was found to be 42 nM; in test [2] it was 0.7 nM.

On to `CN1CC[C@@](O)(C#Cc2cccc(-c3ccc4nccc(N5CCC5)c4c3)c2)C1=O` [Example 235, (R)-3-((3-(4-(Azetidin-1-yl)quinolin-6-yl)phenyl)ethynyl)-3-hydroxy-1-methylpyrrolidin-2-one], for which the IC50 in test [1] (Homo sapiens, L-363, 6 h) was over 5000 nM; in test [2] it was 2950 nM.

For `CN(C)Cc1cnc(N)c2nc(-c3cccc(C#C[C@]4(O)CCN(C)C4=O)c3)ccc12` [Example 172, (R)-3-[2-[3-[8-Amino-5-(dimethylaminomethyl)-1,7-naphthyridin-2-yl]phenyl]ethynyl]-3-hydroxy-1-methyl-pyrrolidin-2-one], the IC50 in test [1] (Homo sapiens, L-363, 6 h) stood at 400 nM; in test [2] it was 20 nM.

For `[2H]C([2H])([2H])c1cc(-c2cccc(C#C[C@]3(O)CCN(C)C3=O)c2)nc2c(N)ncnc12` [Example 286, (R)-3-((3-(4-Amino-8-(methyl-da)pyrido[3,2-d]pyrimidin-6-yl)phenyl)ethynyl)-3-hydroxy-1-methylpyrrolidin-2-one], the IC50 in test [1] (Homo sapiens, L-363, 6 h) is 3.1 nM; in test [2] it was 0.9 nM.

As for `Cc1cc(C#C[C@]2(O)CCN(C)C2=O)cc(-c2ncc3c(C)cnc(N)c3n2)c1` [Example 76, (R)-3-[2-[3-(8-Amino-5-methyl-pyrido[3,4-d]pyrimidin-2-yl)-5-methyl-phenyl]ethynyl]-3-hydroxy-1-methyl-pyrrolidin-2-one], the half-inhibitory concentration (IC50) was found to be 66 nM in test [1] (Homo sapiens, L-363, 6 h) and 2.3 nM in test [2].

As for `CNc1nc(-c2cccc(C#C[C@]3(O)CCN(C)C3=O)c2)nc2c(N)nccc12` [Example 85, (R)-3-((3-(8-Amino-4-(methylamino)pyrido[3,4-d]pyrimidin-2-yl)phenyl)ethynyl)-3-hydroxy-1-methylpyrrolidin-2-one], the IC50 in test [1] (Homo sapiens, L-363, 6 h) came to 6.1 nM; in test [2], 0.7 nM.

Regarding `CN1CC[C@@](O)(C#Cc2cccc(-c3ccc4nc[nH]c(=O)c4n3)c2)C1=O` [Example 221, (R)-6-(3-((3-Hydroxy-1-methyl-2-oxopyrrolidin-3-yl)ethynyl)phenyl)pyrido[3,2-d]pyrimidin-4(3H)-one], the IC50 was over 5000 nM in test [1] (Homo sapiens, L-363, 6 h) and 630 nM in test [2].

With `CN1CC[C@@](O)(C#Cc2cccc(-c3nc4c(N)ncnc4o3)c2)C1=O` [Example 142, (R)-3-((3-(7-Aminooxazolo[5,4-d]pyrimidin-2-yl)phenyl)ethynyl)-3-hydroxy-1-methylpyrrolidin-2-one], the IC50 is over 5000 nM in test [1] (Homo sapiens, L-363, 6 h) and 350 nM in test [2].

On to `CN1CC[C@@](O)(C#Cc2cccc(-c3cc(OC4CC4)c4ncnc(N)c4n3)c2)C1=O` [Example 304, (R)-3-[2-[3-[4-Amino-8-(cyclopropoxy)pyrido[3,2-d]pyrimidin-6-yl]phenyl]ethynyl]-3-hydroxy-1-methyl-pyrrolidin-2-one], for which the IC50 in test [1] (Homo sapiens, L-363, 6 h) is 15 nM; in test [2], 0.6 nM.
